Experiment [1] deals with canalicular stage human lung ALI explants. The experiment in a line: Lung ALI explant culture, immunofluorescent staining. In kind it is cell-based. To be noted: for SFTPA staining in ProSFTPC-positive cells: relative to untreated explants. As for the experimental part: Human fetal lung within the canalicular stage of lung development was utilized for lung ALI explant cultures (specifically 15-18.5 weeks post conception). Small pieces (<0.5 cm diameter) were dissected from distal regions of the lung and placed on Nucleopore Track-Etched Membrane disks (13 mm, 8 μm pore, poly-carbonate) (Sigma, Cat #WHA110414) floating on top of 500 μl of human lung ALI explant media (Advanced DMEM/F-12 (Thermo Fisher, Cat #12634010), 2 mM Glutamax (Thermo Fisher, Cat #35050061), 15 mM HEPES (Corning, Cat #25060CI), 1× B27 Supplement (Thermo Fisher, Cat #17504044) 1×N-2 Supplement (Thermo Fisher, Cat #17502048), 100 U/mL penicillin-streptomycin (Thermo Fisher, Cat #15140122)) in a 24-well tissue culture plate (Thermo Fisher, Cat #12565163). Where indicated, 1 μM A-8301 (APE×BIO Cat #A3133), 100 ng/mL rhTGFβ1 (R&D Systems Cat #240-B-002), 100 ng/mL rhNOGGIN (produced in-house) or 100 ng/mL BMP4 (R&D Systems Cat #314-BP-050) was added to human lung ALI explant media.
All samples processed were fixed for 24 h in 10% Neutral Buffered Formalin at room temperature with gentle agitation. Samples were washed 3× with UltraPure DNase/RNase-free distilled water (Thermo Fisher, Cat #10977015) and dehydrated through an alcohol series consisting of 25%, 50%, 75% and 100% methanol, followed by 100% and 70% ethanol. For tissue and explants each step was performed for at least 1 h. For organoids each step was performed for at least 15 min. In the case of explants and organoids, specimens were embedded in Histogel (VWR Cat #83009-992) prior to paraffin processing. Samples were paraffin processed in an automated tissue processor through the following series: 70%, 80%, 2× 95%, 3× 100% ethanol, 3× xylene and 3× paraffin with 1 h for each step. Tissue was embedded into paraffin blocks and cut into 5 μm-thick sections onto charged glass slides using a microtome. Slides were baked for 1 h at 60° C. immediately prior to staining.
Slides were treated with 2× HistoClear II (National Diagnostics, Cat #HS-202) washes, then rehydrated through washes in 100%, 95%, 70%, 30% ethanol for 4 min each, with buffer exchanges performed halfway through washing. Then, slides were washed 2×5 min with ddH20. Antigen retrieval in 1× Sodium Citrate Buffer (100 mM trisodium citrate (Sigma, Cat #S1804), 0.5% Tween-20 (Thermo Fisher, Cat #BP337), pH 6.0) for 20 min at 99° C. After washing 3× in ddH20 slides were blocked for 1 h with blocking solution: 5% normal donkey serum (Sigma, Cat #D9663), 0.1% Tween-20 in PBS. Slides were then incubated in primary antibodies diluted in blocking solution in a humidified chamber at 4° C. overnight. Slides were washed 3× in 1×PBS for 10 min each. Slides were incubated with secondary antibodies and DAPI (1 μg/mL) diluted in blocking solution for 1 h, then were washed 3× in 1×PBS for 5 min each. Slides were mounted in ProLong Gold (Thermo Fisher, Cat #P369300) and imaged within 2 weeks. Primary and secondary antibodies used in this study are available in Table 1.

For a further experiment, the system named is BTP organoids. The experiment in a line: BTP organoid differentiation, RT-qPCR of AT2 and BTP markers. In kind it is cell-based, human. Particulars: 7 days. As for the experimental part: Primary BTP organoid cultures from 15-18.5 weeks post conception lung tissue were established and maintained as previously reported^3,21,22. BTP organoids were maintained in maintenance media (described below) under 8 mg/mL Matrigel (Corning Cat #354234), fed every three days and passaged 1:3 every 7-10 days by needle sheering.
Differentiations were performed on BTP organoids at passage three by removing maintenance media consisting of: DMEM/F-12 (Corning, Cat #10-092-CV), 100 U/mL penicillin-streptomycin (Thermo Fisher, Cat #15140122), 1×B-27 supplement (Thermo Fisher, Cat #17504044), 1× N2 supplement (Thermo Fisher, Cat #17502048), 0.05% BSA (Sigma, Cat #A9647), 50 μg/mL L-ascorbic acid (Sigma,Cat #A4544), 0.4 μM 1-Thioglycerol (Sigma, Cat #M1753), 50 nM all-trans retinoic acid (Sigma, Cat #R2625), 10 ng/ml recombinant human FGF7 (R&D Systems, Cat #251-KG), and 3 μM CHIR99021 (APE×BIO, Cat #A3011) and replacing with differentiation media. For data in FIG. 3 multiple differentiation medias were tested, all of which consisted of maintenance media with the addition of 1 μM A-8301 and/or the addition of 100 ng/ml BMP4 and/or removal of all trans retinoic acid. B-27 supplement without vitamin A (Thermo Fisher, Cat #12587010) was used instead of full B-27 supplement in conditions in which all trans retinoic acid was removed. For data in all FIGS. 4, 6, 7, 10 differentiation media consisted of common components: DMEM/F12, 100 U/mL penicillin-streptomycin, 1×B-27 supplement without vitamin A, 1× N2 supplement, 0.05% BSA, 50 μg/mL L-ascorbic acid, 0.4 μM 1-Thioglycerol. 10 ng/ml recombinant human FGF7, and 3 μM CHIR99021. To make CK+AB differentiation media 1 μM A-8301 and 100 ng/mL BMP4 was added. To make CKDCI differentiation media 50 nM Dexamethasone (Sigma, Cat #D4902), […] 3-isobutyl-1-methylxanthine (Sigma, Cat #I5879) and […] 8-Bromoadensoine 3′,5′-cyclic monophosphate sodium salt (Sigma, Cat #B7880) was added. Differentiations were fed every three days and passaged at seven day intervals by needle sheering.
(§1) Organoids were dislodged from Matrigel using a P1000 tip, pelleted in a 1.5 mL tube and flash frozen by placing the tube in a small amount of liquid nitrogen with minimal residual media. RNA was isolated from frozen pellets using the MagMax-96 Total RNA Isolation kit (Thermo Fisher, Cat #AM1830) according to the manufacturer's recommendations. RNA quality and yield was determined on a Nanodrop 2000 spectrophotometer. Reverse Transcription was performed in triplicate for each biological replicate using the SuperScript VILO cDNA kit with 200 ng RNA per reaction. After Reverse Transcription, cDNA was diluted 1:2 with DNAse/RNAse free water and 1/40th of the final reaction was used for each RT-qPCR measurement. RT-qPCR measurements were performed using a Step One Plus Real-Time PCR System (Thermo Fisher, Cat #43765592 R) using QuantiTect SYBR Green qPCR Master Mix (Qiagen, Cat #204145) with primers at a concentration of 500 nM. Sequences for RT-qPCR primers used in this manuscript are in Table 2.
For RT-qPCR data arbitrary units (AUs) of gene expression was first calculated using the following equation: 2^(GAPDHCt-TargetCt)×10,000. For FIG. 12B, FIG. 5D, FIG. 7I, FIG. 9E, and FIG. 10H the AUs for each biological replicate were calculated from the mean of technical replicates and a ratio paired t-test was performed between the two conditions compared to determine statistical significance (p). […] For FIG. 3E AUs were normalized to AUs of expression in progenitor media for each biological replicate to obtain fold change. Repeated measures one-way ANOVA was performed with Dunnett's correction on linearized (log-transformed) fold change values comparing all experimental conditions to progenitor medium to determine p.
On the technique in general: Real-time PCR tracks product formation cycle by cycle.

The subject of experiment [2] is CK+AB induced AT2-like organoids. The experiment in a line: Expansion of AT2-like organoids in SFFF media (growth, RT-qPCR, IF, FACS). Type of experiment: cell-based, human. To be noted: for MUC5AC expression (RT-qPCR) on removal of the component from SFFF / SFTPC expression (RT-qPCR) on removal of the component from SFFF: SFFF lacking the component vs SFFF. The protocol:
After 21 days of differentiation in CK+AB or CK+DCI organoids were passaged and fed with SFFF or SFFF without FGF10 consisting of: Advanced DMEM/F12, 2 mM Glutamax, 1× B27 supplement, 100 U/mL penicillin-streptomycin, 15 mM HEPES, 0.05% BSA, 10 μM TGFβ inhibitor SB43152 (APExBIO, Cat #A8249), 1 μM p38 MAP kinase inhibitor BIRB796 (APExBIO, Cat #A5639), 3 μM CHIR99021, 50 ng/mL rhEGF (R&D Systems, Cat #236-EG) with (SFFF) or without the addition of 10 ng/mL FGF10 (produced in-house). Organoids were passaged every 7-14 days at a ratio of 1:6 by needle sheering^93.
as §1
Organoids were retrieved from Matrigel by mechanical dissociation with a P1000, washed 2× with 1 mL PBS and, resuspended with TrypLE and incubated at 37° C. until a single cell suspension was obtained with light pipetting (typically 10 min). Cells were washed 3× with 1 mL of FACS buffer consisting of PBS, 2% BSA and 10 μM Y-27632 (APE×BIO, Cat #3008) and then filtered through a […] mesh. Cells were stained for 1 h on ice in FACS buffer with a 1:60 dilution of anti HTII-280 IgM antibody. Cells were washed 3× with 1 mL of FACS buffer before 30 min of staining in FACS buffer with a 1:1000 dilution of anti-mouse IgM-Alexaflour-488 secondary antibody (Jackson Immunoresearch, Cat #715545140) on ice. After 3× washes with 1 mL of FACS buffer cells were suspended in FACS buffer with 1:4000 dilution of DAPI. […] All steps were carried out at 4° C. unless otherwise indicated. Cells were pelleted at 500×G for 5 min in swing bucket rotors. FACS was performed on either a Sony MA900 or the ThermoFisher Bigfoot Spectral Cell Sorter and analyzed in FlowJo v10.

[3] abbreviates: added to bud tip progenitor media, vs progenitor media.
The mark [4] stands for this setting: CK+AB in absence vs presence of ATRA.

`Cc1cccc(-c2nn(C(=S)Nc3ccccc3)cc2-c2ccnc3ccccc23)n1` [A-8301]: in experiment [1] (day 6 ALI explants), the “SFTPA staining in ProSFTPC-positive cells” value (“SFTPA staining” below) is reported as “increased”. In the experiment on BTP organoids (setting [3]), the “BTP marker SOX9 expression (RT-qPCR)” value is recorded as “Neither treatment alone significantly reduced”, the “SFTPA1 expression (RT-qPCR)” value is “significantly increased” and the “SFTPC expression (RT-qPCR)” value was “significantly increased”.
Take `CC1=C(/C=C/C(C)=C/C=C/C(C)=C/C(=O)O)C(C)(C)CCC1` [ATRA, all-trans retinoic acid]: in the experiment with BTP organoids (setting [4]), the “SFTPB expression (RT-qPCR) on removal of ATRA” value is recorded as “reduced”, the “SFTPC expression (RT-qPCR) on removal of ATRA” value is “significantly enhancing” and the “SOX9 expression (RT-qPCR) on removal of ATRA” value is given as “reducing”.
With `Cc1ccc(-n2nc(C(C)(C)C)cc2NC(=O)Nc2ccc(OCCN3CCOCC3)c3ccccc23)cc1` [BIRB797, reference compound], in experiment [2], the “MUC5AC expression (RT-qPCR) on removal of the component from SFFF” value is “increased” and the “SFTPC expression (RT-qPCR) on removal of the component from SFFF” value is recorded as “improved expression”.
Regarding “TGFβ1: recombinant TGFβ1, activator of TGFβ-signaling, 100 ng/mL”, the “TP63 expression in epithelial cells” value in experiment [1] (ALI explants) is “most epithelial cells expressing TP63”. Moreover, in experiment [1] (day 6 ALI explants), the ProSFTPC staining result is given as “reduced” and the “SFTPA staining” value is “barely detectible”.

B1: FGF10: recombinant human FGF10, 10 ng/mL, produced in-house, component of SFFF (protein, UniProt O15520 38-208, looked up)
Fibroblast growth factor 10: QALGQDMVSPEATNSSSSSFSSPSSAGRHVRSYNHLQGDVRWRKLFSFTKYFLKIEKNGKVSGTKKENCPYSILEITSVEIGVVAVKAINSNYYLAMNKKGKLYGSKEFNNDCKLKERIEENGYNTYASFNWQHNGRQMYVALNGKGAPRRGQKTRRKNTSAHFLPMVVHS
Consider B1, for which, in experiment [2], the “MUC5AC expression (RT-qPCR) on removal of the component from SFFF” value is recorded as “reduction of MUC5AC to near-zero levels” and the “SFTPC expression (RT-qPCR) on removal of the component from SFFF” value is listed as “improved expression”. For the same molecule, in experiment [2] (SFFF with vs without FGF10), the “AT2 phenotype of CK+AB differentiated AT2-like cells” value was “repressed”.

B2: NOGGIN: recombinant BMP inhibitor NOGGIN, 100 ng/mL, produced in-house (protein, UniProt Q13253 28-232, looked up)
Noggin: QHYLHIRPAPSDNLPLVDLIEHPDPIFDPKEKDLNETLLRSLLGGHYDPGFMATSPPEDRPGGGGGAAGGAEDLAELDQLLRQRPSGAMPSEIKGLEFSEGLAQGKKQRLSKKLRRKLQMWLWSQTFCPVLYAWNDLGSRFWPRYVKVGSCFSKRSCSVPEGMVCKPSKSVHLTVLRWRCQRRGGQRCGWIPIQYPIISECKCSC
For the molecule B2, the phosphoSMAD1/5/8 staining result in experiment [1] (day 6 ALI explants, 100 ng/mL NOGGIN) is reported as “blocked”. Further, the “SFTPA staining” value in experiment [1] (day 6 ALI explants) is on record as “did not change”.

B3: BMP4: recombinant BMP4, BMP-activator, 100 ng/mL (R&D Systems) (protein, UniProt P12644 293-408, looked up)
Bone morphogenetic protein 4: SPKHHSQRARKKNKNCRRHSLYVDFSDVGWNDWIVAPPGYQAFYCHGDCPFPLADHLNSTNHAIVQTLVNSVNSSIPKACCVPTELSAISMLYLDEYDKVVLKNYQEMVVEGCGCR
With B3, the “SFTPA staining” value in experiment [1] (day 6 ALI explants) is “robust and readily detectable levels”. In the experiment with BTP organoids (setting [3]), the “BTP marker SOX9 expression (RT-qPCR)” value is “Neither treatment alone significantly reduced”, the “HOPX expression (RT-qPCR)” value was “significantly increased”, the “LAMP3 expression (RT-qPCR)” value is “significantly increased” and the “SFTPA1 expression (RT-qPCR)” value was “significantly increased”. Further, the “SFTPB expression (RT-qPCR)” value with BTP organoids (setting [3]) is “significantly increased”.

The values are drawn from patent US20260174819A1, “COMPOSITIONS AND METHODS FOR OBTAINING HUMAN ALVEOLAR CELLS AND RELATED USES THEREOF” (The Regents of the University of Michigan, priority 2022, published 2026).
